PMC9655119, “Sustained Activation of CLR/RAMP Receptors by Gel-Forming Agonists” (International Journal of Molecular Sciences, 2022)
pEC50: −log10 of the molar value. Where two headings read alike, the source gives them in different places. Positions of bridges follow the written chain, without caps; N, C: chain ends. Non-standard residues stand in square brackets, D forms with d. Residues, ends and D or L forms follow the SMILES beside them. *: point of attachment. Palmitoyl = CCCCCCCCCCCCCCCC(=O)*; AEEA = NCCOCCOCC(=O)O

Key:
human CLR/RAMP1 = biological target: T1, human CLR/RAMP1 (Homo sapiens, UniProt O60894+Q16602); experiment: CLR/RAMP1 receptor-activation assay (DiscoverX cAMP Hunter, HitHunter cAMP XS+); assay type: cell-based; settings: for Emax: read-out: CLR/RAMP1 Max Activity
T1 construct: host or cells: 1321N1 cells (cAMP Hunter cell line)
Method: (§1) The bioactivity of peptide analogs was studied using CLR/RAMP1, CLR/RAMP2, and CLR/RAMP3 assays by DiscoveRx (Fremont, CA, USA) in cells that stably express human CLR/RAMP1 (1321N1 cells), CLR/RAMP2 (CHO-K1 cells), or CLR/RAMP3 (CHO-K1 cells). The dose-dependent stimulatory effect of agonists was studied in duplicate, at 10 different concentrations. Determination of the half-maximal effective concentration (EC50) was performed using a 10-point dose-response curves. The starting concentration was 1.0 μM, and it was serially diluted 3-fold, in DMSO.
Cells were seeded in a total volume of 20 μL into 384-well microplates, and the activity was determined using the DiscoverX HitHunter cAMP XS + assay. Before the assay, media was aspirated from cells and replaced with 15 μL 2:1 HBSS/10 mM Hepes: cAMP XS + Ab reagent. Intermediate dilution of samples was performed to generate 4X sample in assay buffer, and 5 μL of the 4X sample was added to cells and incubated at 37°C. Vehicle concentration was 1%.
The chemiluminescent signal was read with a PerkinElmer instrument.

human CLR/RAMP2 = biological target: T2, human CLR/RAMP2 (Homo sapiens, UniProt O60895+Q16602); experiment: CLR/RAMP2 receptor-activation assay (PathHunter β-Arrestin); assay type: cell-based; settings: for Emax: read-out: CLR/RAMP2 Max Activity
T2 construct: host or cells: CHO-K1 cells (PathHunter β-Arrestin cell line)
Method: as §1
In this assay, the CLR was fused in frame with a small enzyme donor fragment ProLink™ (PK). The receptor was co-expressed with a fusion protein of β-arrestin and an N-terminal deletion mutant of β-galactosidase (i.e., enzyme acceptor). Activation of the CLR/RAMP2 receptor stimulated the binding of β-arrestin to the PK-tagged receptor and led to an increase in enzyme activities which can then be measured with the PathHunter detection reagents. PathHunter cell lines were seeded in a total volume of 20 μL into 384-well microplates and incubated at 37 °C prior to the assay. Intermediate dilution of samples was performed to generate 5X samples in the assay buffer. A 5 μL aliquot of 5X sample was added to cells and incubated at 37 °C for 90 min. Vehicle concentration was 1%.

[1] = percentage of positive control β-CGRP

T1 sequence (Q16602 23-461): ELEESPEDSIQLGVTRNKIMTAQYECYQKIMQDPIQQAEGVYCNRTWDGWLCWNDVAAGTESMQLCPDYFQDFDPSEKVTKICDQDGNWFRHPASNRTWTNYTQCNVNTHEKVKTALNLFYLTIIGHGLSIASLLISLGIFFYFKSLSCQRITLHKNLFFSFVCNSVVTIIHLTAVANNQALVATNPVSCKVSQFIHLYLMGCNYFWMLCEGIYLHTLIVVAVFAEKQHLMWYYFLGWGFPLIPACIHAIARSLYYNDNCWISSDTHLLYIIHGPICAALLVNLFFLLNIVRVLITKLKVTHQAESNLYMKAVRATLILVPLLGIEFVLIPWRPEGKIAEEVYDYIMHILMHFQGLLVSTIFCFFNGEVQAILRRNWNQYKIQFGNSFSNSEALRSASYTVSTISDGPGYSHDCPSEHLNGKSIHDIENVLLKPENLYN
T1 sequence (O60894 27-148): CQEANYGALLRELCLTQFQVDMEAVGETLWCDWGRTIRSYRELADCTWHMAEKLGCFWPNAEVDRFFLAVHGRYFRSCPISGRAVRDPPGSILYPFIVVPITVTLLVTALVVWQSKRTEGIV
T2 sequence (Q16602 23-461): as the sequence (Q16602 23-461) above
T2 sequence (O60895 43-175): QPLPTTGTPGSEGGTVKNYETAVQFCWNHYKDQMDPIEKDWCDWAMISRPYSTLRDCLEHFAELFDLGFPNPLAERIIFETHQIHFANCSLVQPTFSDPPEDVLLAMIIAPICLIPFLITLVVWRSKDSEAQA

Emax (human CLR/RAMP1; [1]) [%]	pEC50 (human CLR/RAMP2; CHO-K1 cells stably expressing human CLR/RAMP2, β-arrestin recruitment, 90 min at 37 °C, 10-point dose-response in duplicate, start 1.0 μM, 3-fold dilution in DMSO)	Emax (human CLR/RAMP2; percentage of positive control ADM1-52) [%]	pEC50 (human CLR/RAMP1; 1321N1 cells stably expressing human CLR/RAMP1, cAMP read-out, 10-point dose-response in duplicate, start 1.0 μM, 3-fold serial dilution in DMSO)	Compound	Emax (human CLR/RAMP2) [%]	Emax (human CLR/RAMP1) [%]
103	–	–	–	CSCC[C@H](NC(=O)CNC(=O)CNC(=O)[C@H](CO)NC(=O)[C@H](CCCNC(=N)N)NC(=O)[C@H](CO)NC(=O)[C@H](CC(C)C)NC(=O)[C@H](CC(C)C)NC(=O)CNC(=O)[C@H](C)NC(=O)[C@H](CC(C)C)NC(=O)[C@H](CCCNC(=N)N)NC(=O)[C@H](Cc1c[nH]cn1)NC(=O)[C@@H](NC(=O)[C@@H](NC(=O)[C@@H]1CSSC[C@H](NC(=O)[C@H](C)N)C(=O)N[C@@H](CC(N)=O)C(=O)N[C@@H]([C@@H](C)O)C(=O)N[C@@H](C)C(=O)N[C@@H]([C@@H](C)O)C(=O)N1)C(C)C)[C@@H](C)O)C(=O)N[C@H](C(=O)N[C@@H](CCCCN)C(=O)N[C@@H](CO)C(=O)N[C@@H](CC(N)=O)C(=O)N[C@@H](Cc1ccccc1)C(=O)N[C@H](C(=O)N1CCC[C@H]1C(=O)N[C@H](C(=O)N[C@@H](CC(N)=O)C(=O)N[C@H](C(=O)NCC(=O)N[C@@H](CO)C(=O)N[C@@H](CCCCN)C(=O)N[C@@H](C)C(=O)N[C@@H](Cc1ccccc1)C(N)=O)C(C)C)[C@@H](C)O)C(C)C)C(C)C [CGRP, calcitonin gene-related peptide, reference compound]	–	–
–	–	–	–	CCCCCCCCCCCCCCCC(=O)NCCCC[C@H](NC(=O)COCCOCCN)C(=O)NCC(=O)N[C@H]1CSSC[C@@H](C(=O)N[C@H](C(=O)N[C@H](C(=O)N[C@@H](CCC(N)=O)C(=O)N[C@@H](CCCCN)C(=O)N[C@@H](CC(C)C)C(=O)N[C@@H](C)C(=O)N[C@@H](Cc2c[nH]cn2)C(=O)N[C@@H](CCC(N)=O)C(=O)N[C@H](C(=O)N[C@@H](Cc2ccc(O)cc2)C(=O)N[C@@H](CCC(N)=O)C(=O)N[C@@H](Cc2ccccc2)C(=O)N[C@H](C(=O)N[C@@H](CC(=O)O)C(=O)N[C@@H](CCCCN)C(=O)N[C@@H](CC(=O)O)C(=O)N[C@@H](CCCCN)C(=O)N[C@@H](CC(=O)O)C(=O)N[C@@H](CC(N)=O)C(=O)N[C@H](C(=O)N[C@@H](C)C(=O)N2CCC[C@H]2C(=O)N[C@@H](CCCNC(=N)N)C(=O)N[C@@H](CO)C(=O)N[C@@H](CCCCN)C(=O)N[C@H](C(=O)N[C@@H](CO)C(=O)N2CCC[C@H]2C(=O)N[C@@H](CCC(N)=O)C(=O)NCC(=O)N[C@@H](Cc2ccc(O)cc2)C(N)=O)[C@@H](C)CC)C(C)C)[C@@H](C)O)[C@@H](C)CC)C(C)C)[C@@H](C)O)NC(=O)[C@H]([C@@H](C)O)NC(=O)CNC(=O)[C@H](Cc2ccccc2)NC(=O)[C@H](CCCNC(=N)N)NC1=O [Analog C-7]	147	70
–	–	–	–	CCCCCCCCCCCCCCCC(=O)NCCCC[C@H](NC(=O)COCCOCCN)C(=O)N[C@H](C(=O)N[C@@H](CCCCN)C(=O)N[C@@H](CCCCN)C(=O)N[C@H](C(=O)N[C@@H](CC(C)C)C(=O)N[C@@H](CCCNC(=N)N)C(=O)N[C@H](C(=O)NCC(=O)N[C@H]1CSSC[C@@H](C(=O)N[C@H](C(=O)N[C@H](C(=O)N[C@@H](CCC(N)=O)C(=O)N[C@@H](CCCCN)C(=O)N[C@@H](CC(C)C)C(=O)N[C@@H](C)C(=O)N[C@@H](Cc2c[nH]cn2)C(=O)N[C@@H](CCC(N)=O)C(=O)N[C@H](C(=O)N[C@@H](Cc2ccc(O)cc2)C(=O)N[C@@H](CCC(N)=O)C(=O)N[C@@H](Cc2ccccc2)C(=O)N[C@H](C(=O)N[C@@H](CC(=O)O)C(=O)N[C@@H](CCCCN)C(=O)N[C@@H](CC(=O)O)C(=O)N[C@@H](CCCCN)C(=O)N[C@@H](CC(=O)O)C(=O)N[C@@H](CC(N)=O)C(=O)N[C@H](C(=O)N[C@@H](C)C(=O)N2CCC[C@H]2C(=O)N[C@@H](CCCNC(=N)N)C(=O)N[C@@H](CO)C(=O)N[C@@H](CCCCN)C(=O)N[C@H](C(=O)N[C@@H](CO)C(=O)N2CCC[C@H]2C(=O)N[C@@H](CCC(N)=O)C(=O)NCC(=O)N[C@@H](Cc2ccc(O)cc2)C(N)=O)[C@@H](C)CC)C(C)C)[C@@H](C)O)[C@@H](C)CC)C(C)C)[C@@H](C)O)NC(=O)[C@H]([C@@H](C)O)NC(=O)CNC(=O)[C@H](Cc2ccccc2)NC(=O)[C@H](CCCNC(=N)N)NC1=O)[C@@H](C)O)[C@@H](C)O)[C@@H](C)O [Analog C-8]	68	69
82	9.30	86	9.70	CCCCCCCCCCCCCCCC(=O)NCCCC[C@H](NC(=O)[C@@H](N)[C@@H](C)O)C(=O)N[C@@H](CCCCN)C(=O)N[C@H](C(=O)N[C@@H](CC(C)C)C(=O)N[C@@H](CCCNC(=N)N)C(=O)N[C@H](C(=O)NCC(=O)N[C@H]1CSSC[C@@H](C(=O)N[C@H](C(=O)N[C@H](C(=O)N[C@@H](CCC(N)=O)C(=O)N[C@@H](CCCCN)C(=O)N[C@@H](CC(C)C)C(=O)N[C@@H](C)C(=O)N[C@@H](Cc2c[nH]cn2)C(=O)N[C@@H](CCC(N)=O)C(=O)N[C@H](C(=O)N[C@@H](Cc2ccc(O)cc2)C(=O)N[C@@H](CCC(N)=O)C(=O)N[C@@H](Cc2ccccc2)C(=O)N[C@H](C(=O)N[C@@H](CC(=O)O)C(=O)N[C@@H](CCCCN)C(=O)N[C@@H](CC(=O)O)C(=O)N[C@@H](CCCCN)C(=O)N[C@@H](CC(=O)O)C(=O)N[C@@H](CC(N)=O)C(=O)N[C@@H](CO)C(=O)N[C@@H](C)C(=O)N2CCC[C@H]2C(=O)N[C@H](C(=O)N[C@@H](CC(=O)O)C(=O)N2CCC[C@H]2C(=O)N[C@@H](CO)C(=O)N[C@@H](CO)C(=O)N2CCC[C@H]2C(=O)N[C@@H](Cc2c[nH]cn2)C(=O)N[C@@H](CO)C(=O)N[C@@H](Cc2ccc(O)cc2)C(N)=O)C(C)C)[C@@H](C)O)[C@@H](C)CC)C(C)C)[C@@H](C)O)NC(=O)[C@H]([C@@H](C)O)NC(=O)CNC(=O)[C@H](Cc2ccccc2)NC(=O)[C@H](CCCNC(=N)N)NC1=O)[C@@H](C)O)[C@@H](C)O [Analog C-4]	–	–
–	–	–	–	CCCCCCCCCCCCCCCC(=O)NCCCC[C@H](NC(=O)COCCOCCN)C(=O)NCC(=O)N[C@H]1CSSC[C@@H](C(=O)N[C@H](C(=O)N[C@H](C(=O)N[C@@H](CCC(N)=O)C(=O)N[C@@H](CCCCN)C(=O)N[C@@H](CC(C)C)C(=O)N[C@@H](C)C(=O)N[C@@H](Cc2c[nH]cn2)C(=O)N[C@@H](CCC(N)=O)C(=O)N[C@H](C(=O)N[C@@H](Cc2ccc(O)cc2)C(=O)N[C@@H](CCC(N)=O)C(=O)N[C@@H](Cc2ccccc2)C(=O)N[C@H](C(=O)N[C@@H](CC(=O)O)C(=O)N[C@@H](CCCCN)C(=O)N[C@@H](CC(=O)O)C(=O)N[C@@H](CO)C(=O)N[C@@H](C)C(=O)N2CCC[C@H]2C(=O)N[C@H](C(=O)N[C@@H](CC(=O)O)C(=O)N2CCC[C@H]2C(=O)N[C@@H](CO)C(=O)N[C@@H](CO)C(=O)N2CCC[C@H]2C(=O)N[C@@H](Cc2c[nH]cn2)C(=O)N[C@@H](CO)C(=O)N[C@@H](Cc2ccc(O)cc2)C(N)=O)C(C)C)[C@@H](C)O)[C@@H](C)CC)C(C)C)[C@@H](C)O)NC(=O)[C@H]([C@@H](C)O)NC(=O)CNC(=O)[C@H](Cc2ccccc2)NC(=O)[C@H](CCCNC(=N)N)NC1=O [Analog D-1] (H-[AEEA]K(Palmitoyl)GCRFGTCTVQKLAHQIYQFTDKDSAPVDPSSPHSY-NH2; disulfide 4-9)	77	78
